Data as given in US20240208940A1, “SMALL-MOLECULE INHIBITORS FOR BETA-CATENIN/BCELL LYMPHOMA 9 PROTEIN-PROTEIN INTERACTION” (H. LEE MOFFITT CANCER CENTER AND RESEARCH INSTITUTE, INC., priority 2021, published 2024).
Where a name gives a salt, the structure may show the parent alone.

Biological target: β-catenin/BCL9 PPI (Homo sapiens (Human), UniProt P35222)
Test: AlphaScreen competitive inhibition assay of β-catenin/BCL9 PPI
Format: binding
Settings: mean ± standard deviation (n = 3); for Ki: derived from IC50, read-out: Ki ± SD
Protocol: AlphaScreen Assays of β-Catenin and BCL9 Interaction. Experiments were performed in white opaque 384-well plates from PerkinElmer (Waltham, MA), and the samples were read on a Biotek Synergy 2 plate reader (Winooski, VT) with excitation at 680 nm and emission at 570 nm. The standard AlphaScreen protocol was used with a sensitivity setting of 200. All dilutions were made in 1× assay buffer containing 25 mM Hepes (pH 7.4), 100 mM NaCl, 0.01% Triton X-100 and 0.1% BSA to minimize nonspecific interactions. For the competitive inhibition assays of β-catenin/BCL9 PPI, the negative control (equivalent to 0% inhibition) refers to 5.0 nM biotinylated BCL9, 50 nM His6-tagged β-catenin, and 10 μg/mL donor and acceptor beads in a final volume of 25 μL assay buffer, but no tested inhibitor present. The positive control (equivalent to 100% inhibition) refers to 5.0 nM biotinylated BCL9 and 10 μg/mL donor and acceptor beads in a final volume of 25 μL assay buffer.
For the β-catenin/BCL9 assay, 5 nM biotinylated BCL9 and 50 nM His6-tagged β-catenin were incubated in assay buffer for 30 min. Different concentrations of the tested inhibitor were added and incubated in 20 μL assay buffer for another 1 h. All of the assay plates were covered and gently mixed on an orbital shaker. The donor and acceptor beads were then added to the plates to a final concentration of 10 μg/mL in 25 μL assay buffer. The mixture was incubated for 1 h before detection. The IC50 value was determined by nonlinear least-square analysis of GraphPad Prism 8.0. The Ki values were derived from the IC50 values using a method reported by Wang and coworkers.^65 The equation used is Ki=[I]50/([L]50/Kd+[P]0/Kd+1) (Where [I]50 denotes the concentration of the free inhibitor at 50% inhibition, [L]50 is the concentration of the free labeled ligand at 50% inhibition, [P]0 is the concentration of the free protein at 0% inhibition, and Kd is the dissociation constant of the protein-ligand complex). All of the experiments were performed in triplicate and carried out in the presence of 1% DMSO for small-molecule inhibitors. Each compound was assayed at least by three independent experiments. The results were expressed as mean±standard deviation.

Chain of β-catenin/BCL9 PPI (P35222 whole entry): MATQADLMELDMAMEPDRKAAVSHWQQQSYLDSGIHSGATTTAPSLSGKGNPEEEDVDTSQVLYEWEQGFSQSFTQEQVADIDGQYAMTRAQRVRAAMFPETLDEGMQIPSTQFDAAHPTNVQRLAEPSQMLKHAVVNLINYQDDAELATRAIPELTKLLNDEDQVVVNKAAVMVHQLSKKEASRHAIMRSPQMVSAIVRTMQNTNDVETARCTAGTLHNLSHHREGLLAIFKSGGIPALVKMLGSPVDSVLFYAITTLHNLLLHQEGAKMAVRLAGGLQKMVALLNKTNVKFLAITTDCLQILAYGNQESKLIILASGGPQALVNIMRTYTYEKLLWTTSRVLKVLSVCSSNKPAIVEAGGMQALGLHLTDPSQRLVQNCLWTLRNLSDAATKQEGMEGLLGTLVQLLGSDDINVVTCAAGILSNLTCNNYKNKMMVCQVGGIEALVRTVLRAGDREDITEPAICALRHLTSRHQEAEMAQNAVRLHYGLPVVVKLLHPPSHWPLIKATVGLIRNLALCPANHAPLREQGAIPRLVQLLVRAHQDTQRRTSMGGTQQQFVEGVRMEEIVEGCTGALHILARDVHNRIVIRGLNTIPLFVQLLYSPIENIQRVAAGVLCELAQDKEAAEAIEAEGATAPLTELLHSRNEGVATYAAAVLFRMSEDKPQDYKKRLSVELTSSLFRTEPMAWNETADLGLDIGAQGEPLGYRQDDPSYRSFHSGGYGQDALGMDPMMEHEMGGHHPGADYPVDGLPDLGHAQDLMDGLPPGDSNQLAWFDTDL

Compound	Ki	IC50
O=C(c1ccc(O[C@H]2CCNC2)c(C2CCC(C(F)(F)F)CC2)c1)N1CCC(Oc2cc(F)cc(N3CCNCC3)c2)CC1 (stereo in doubt) [Compound 18, cis- and trans-(S)-(4-(3-fluoro-5-(piperazin-1-yl)phenoxy)piperidin-1-yl)(4-(pyrrolidin-3-yloxy)-3-(4-(trifluoromethyl)cyclohexyl)phenyl)methanone dihydrochloride]	≤ 20 µM	≤ 20 µM
CC(C)(C)C1CCC(c2cc(C(=O)N3CCC(Oc4cc(F)cc(N5CCNCC5)c4)CC3)ccc2O[C@H]2CCNC2)CC1 (stereo in doubt) [Compound 19, cis- and trans-(S)-(3-(4-(tert-butyl)cyclohexyl)-4-(pyrrolidin-3-yloxy)phenyl)(4-(3-fluoro-5-(piperazin-1-yl)phenoxy)piperidin-1-yl)methanone dihydrochloride]	≤ 5 µM	≤ 5 µM
CC(C)(C)C1CCC(c2cc(C(=O)N3CCC(Oc4cc(Cl)cc(N5CCNCC5)c4)CC3)ccc2O[C@H]2CCNC2)CC1 (stereo in doubt) [Compound 30, cis- and trans-(S)-(3-(4-(tert-butyl)cyclohexyl)-4-(pyrrolidin-3-yloxy)phenyl)(4-(3-chloro-5-(piperazin-1-yl)phenoxy)piperidin-1-yl)methanone dihydrochloride]	≤ 5 µM	≤ 5 µM
CC(C)(C)C1CCC(c2cc(C(=O)N3CCC(Oc4cc(N5CCNCC5)cc(C(F)(F)F)c4)CC3)ccc2O[C@H]2CCNC2)CC1 (stereo in doubt) [Compound 31, cis- and trans-(S)-(3-(4-(tert-butyl)cyclohexyl)-4-(pyrrolidin-3-yloxy)phenyl)(4-(3-(piperazin-1-yl)-5-(trifluoromethyl)phenoxy)piperidin-1-yl)methanone dihydrochloride]	< 5 µM	≤ 5 µM
CC(C)(C)C1CCC(c2cc(C(=O)N3CCC(Oc4cc(C#N)cc(N5CCNCC5)c4)CC3)ccc2O[C@H]2CCNC2)CC1 (stereo in doubt) [Compound 32, cis- and trans-(S)-3-((1-(3-(4-(tert-butyl)cyclohexyl)-4-(pyrrolidin-3-yloxy)benzoyl)piperidin-4-yl)oxy)-5-(piperazin-1-yl)benzonitrile dihydrochloride]	≤ 10 µM	≤ 10 µM
CC(C)(C)C1CCC(c2cc(C(=O)N3CCC(Oc4ccc(F)c(N5CCNCC5)c4)CC3)ccc2O[C@H]2CCNC2)CC1 (stereo in doubt) [Compound 33, cis- and trans-(S)-(3-(4-(tert-butyl)cyclohexyl)-4-(pyrrolidin-3-yloxy)phenyl)(4-(4-fluoro-3-(piperazin-1-yl)phenoxy)piperidin-1-yl)methanone dihydrochloride]	≤ 10 µM	≤ 10 µM
CC(C)(C)C1CCC(c2cc(C(=O)N3CCC(Oc4cc(N5CCNCC5)ccc4F)CC3)ccc2O[C@H]2CCNC2)CC1 (stereo in doubt) [Compound 34, cis- and trans-(S)-(3-(4-(tert-butyl)cyclohexyl)-4-(pyrrolidin-3-yloxy)phenyl)(4-(2-fluoro-5-(piperazin-1-yl)phenoxy)piperidin-1-yl)methanone dihydrochloride]	≤ 10 µM	≤ 10 µM
CC(C)(C)C1CCC(c2cc(C(=O)N3CCC(Oc4cc(N5CCNCC5)cc(F)c4F)CC3)ccc2O[C@H]2CCNC2)CC1 (stereo in doubt) [Compound 35, cis- and trans-(S)-(3-(4-(tert-butyl)cyclohexyl)-4-(pyrrolidin-3-yloxy)phenyl)(4-(2,3-difluoro-5-(piperazin-1-yl)phenoxy)piperidin-1-yl)methanone dihydrochloride]	≤ 5 µM	≤ 5 µM
CC(C)(C)C1CCC(c2cc(C(=O)N3CCC(Oc4cc(N5CCNCC5)ccc4Cl)CC3)ccc2O[C@H]2CCNC2)CC1 (stereo in doubt) [Compound 36, cis- and trans-(S)-(3-(4-(tert-butyl)cyclohexyl)-4-(pyrrolidin-3-yloxy)phenyl)(4-(2-chloro-5-(piperazin-1-yl)phenoxy)piperidin-1-yl)methanone dihydrochloride]	≤ 5 µM	≤ 5 µM
CC(C)(C)C1CCC(c2cc(C(=O)N3CCC(Oc4cc(N5CCNCC5)ccc4C#N)CC3)ccc2O[C@H]2CCNC2)CC1 (stereo in doubt) [Compound 37, cis- and trans-(S)-2-((1-(3-(4-(tert-butyl)cyclohexyl)-4-(pyrrolidin-3-yloxy)benzoyl)piperidin-4-yl)oxy)-4-(piperazin-1-yl)benzonitrile dihydrochloride]	≤ 2 µM	≤ 2 µM
CC(C)(C)C1CCC(c2cc(C(=O)N3CCC(Oc4cccc(N5CCNCC5)c4)CC3)ccc2O[C@H]2CCNC2)CC1 (stereo in doubt) [Compound 38, cis and trans-(S)-(3-(4-(tert-butyl)cyclohexyl)-4-(pyrrolidin-3-yloxy)phenyl)(4-(3-(piperazin-1-yl)phenoxy)piperidin-1-yl)methanone dihydrochloride]	≤ 20 µM	≤ 20 µM
COC(=O)c1ccc(N2CCNCC2)cc1OC1CCN(C(=O)c2ccc(O[C@H]3CCNC3)c(C3CCC(C(C)(C)C)CC3)c2)CC1 (stereo in doubt) [Compound 39, cis- and trans-methyl (S)-2-((1-(3-(4-(tert-butyl)cyclohexyl)-4-(pyrrolidin-3-yloxy)benzoyl)piperidin-4-yl)oxy)-4-(piperazin-1-yl)benzoate dihydrochloride]	14 ± 0.87 µM	17 ± 1.1 µM
CC(C)(C)C1CCC(c2cc(C(=O)N3CCC(Oc4cc(N5CCNCC5)ccc4C(=O)O)CC3)ccc2O[C@H]2CCNC2)CC1 (stereo in doubt) [Compound 40, cis- and trans-(S)-2-((1-(3-(4-(tert-butyl)cyclohexyl)-4-(pyrrolidin-3-yloxy)benzoyl)piperidin-4-yl)oxy)-4-(piperazin-1-yl)benzoic acid dihydrochloride]	~84 µM	~100 µM
CC(C)(C)C1CCC(c2cc(C(=O)N3CCC(Oc4cc(N5CCNCC5)ccc4C(N)=O)CC3)ccc2O[C@H]2CCNC2)CC1 (stereo in doubt) [Compound 41, cis- and trans-(S)-2-((1-(3-(4-(tert-butyl)cyclohexyl)-4-(pyrrolidin-3-yloxy)benzoyl)piperidin-4-yl)oxy)-4-(piperazin-1-yl)benzamide dihydrochloride]	≤ 20 µM	≤ 20 µM
CNC(=O)c1ccc(N2CCNCC2)cc1OC1CCN(C(=O)c2ccc(O[C@H]3CCNC3)c(C3CCC(C(C)(C)C)CC3)c2)CC1 (stereo in doubt) [Compound 42, cis- and trans-(S)-2-((1-(3-(4-(tert-butyl)cyclohexyl)-4-(pyrrolidin-3-yloxy)benzoyl)piperidin-4-yl)oxy)-N-methyl-4-(piperazin-1-yl)benzamide dihydrochloride]	≤ 50 µM	≤ 50 µM
CN(C)C(=O)c1ccc(N2CCNCC2)cc1OC1CCN(C(=O)c2ccc(O[C@H]3CCNC3)c(C3CCC(C(C)(C)C)CC3)c2)CC1 (stereo in doubt) [Compound 43, cis- and trans-(S)-2-((1-(3-(4-(tert-butyl)cyclohexyl)-4-(pyrrolidin-3-yloxy)benzoyl)piperidin-4-yl)oxy)-N,N-dimethyl-4-(piperazin-1-yl)benzamide dihydrochloride]	~81 µM	~100 µM
O=C(c1ccc(O[C@H]2CCNC2)c(C2CCCCC2)c1)N1CCC(Oc2cc(F)cc(N3CCNCC3)c2)CC1 [Compound 1, (S)-(3-cyclohexyl-4-(pyrrolidin-3-yloxy)phenyl)(4-(3-fluoro-5-(piperazin-1-yl)phenoxy)piperidin-1-yl)methanone dihydrochloride]	≤ 50 µM	≤ 60 µM
O=C(c1ccc(O[C@H]2CCNC2)c(C2CCCCC2)c1)N1CCC(Oc2cc(F)cc(N3CC4(CCNCC4)C3)c2)CC1 [Compound 2, (S)-(3-cyclohexyl-4-(pyrrolidin-3-yloxy)phenyl)(4-(3-fluoro-5-(2,7-diazaspiro[3.5]nonan-2-yl)phenoxy)piperidin-1-yl)methanone ditrifluoroacetic acid]	> 84 µM	> 100 µM
O=C(c1ccc(O[C@H]2CCNC2)c(C2CCCCC2)c1)N1CCC(Oc2cc(F)cc(N3CCC4(CC3)CNC4)c2)CC1 [Compound 3, (S)-(3-cyclohexyl-4-(pyrrolidin-3-yloxy)phenyl)(4-(3-fluoro-5-(2,7-diazaspiro[3.5]nonan-7-yl)phenoxy)piperidin-1-yl)methanone ditrifluoroacetic acid]	> 84 µM	> 100 µM
